The results in this text go back to ChEMBL document CHEMBL4311936, “Synthesis and structure-activity relationship studies of IgG-binding peptides focused on the C-terminal histidine residue” (Medchemcomm, 2019).

The nature of experiment [1]: Binding affinity to human IgG assessed as dissociation constant by SPR analysis.
Experiment [2] is filed under the species Homo sapiens. In words: Binding affinity to human IgG assessed as association rate constant by SPR analysis. A general note: SPR reads the build-up and loss of mass on a sensor chip optically.
Experiment [3] is filed under the species Homo sapiens. Kind of experiment: Binding affinity to human IgG assessed as dissociation rate constant by SPR analysis.

Bridge positions count the residues as written; N and C are the ends. Square brackets hold non-standard residues; d marks the D form. Peptide text beside a SMILES is read from it. * marks the point of attachment. ξ: configuration not given here. NH(4-OH-benzyl) = Oc1ccc(CN*)cc1; ξ2Pal = NC(Cc1ccccn1)C(=O)O; ξCha = NC(CC1CCCCC1)C(=O)O; ξOrn = NCCCC(N)C(=O)O; ξDab = NCCC(N)C(=O)O

Usually Kd stands for the constant that tells how readily two partners part at equilibrium. Regarding `CC(=O)N[C@@H](CC(=O)O)C(=O)N[C@H]1CSSC[C@@H](C(=O)N[C@H](C(=O)N[C@@H](Cc2ccccc2)C(=O)N[C@@H](Cc2cnc[nH]2)C(=O)NCC(N)=O)[C@@H](C)O)NC(=O)[C@H](Cc2c[nH]c3ccccc23)NC(=O)[C@H](C(C)C)NC(=O)[C@H](CC(C)C)NC(=O)[C@H](CCC(=O)O)NC(=O)CNC(=O)[C@H](CCCCN)NC(=O)[C@H](Cc2cnc[nH]2)NC(=O)[C@H](Cc2ccc(O)cc2)NC(=O)[C@H](C)NC1=O` (Ac-DCAYHKGELVWCTFHG-NH2; disulfide 2-12), in experiment [1], the Kd was 338 nM. The Ka in experiment [2] was 615000 M⁻¹ s⁻¹. The Kdiss in experiment [3] is 0.208 s⁻¹.
For `CC(=O)N[C@@H](CC(=O)O)C(=O)N[C@H]1CSSC[C@@H](C(=O)N[C@H](C(=O)N[C@@H](Cc2ccccc2)C(=O)N[C@@H](Cc2cnc[nH]2)C(=O)NCc2ccc(O)cc2)[C@@H](C)O)NC(=O)[C@H](Cc2c[nH]c3ccccc23)NC(=O)[C@H](C(C)C)NC(=O)[C@H](CC(C)C)NC(=O)[C@H](CCC(=O)O)NC(=O)CNC(=O)[C@H](CCCCN)NC(=O)[C@H](Cc2cnc[nH]2)NC(=O)[C@H](Cc2ccc(O)cc2)NC(=O)[C@H](C)NC1=O` (Ac-DCAYHKGELVWCTFH-{NH(4-OH-benzyl)}; disulfide 2-12) the same measures were 203 nM, 603000 M⁻¹ s⁻¹ and 0.122 s⁻¹.
Turning to `CC(=O)N[C@@H](CC(=O)O)C(=O)N[C@H]1CSSC[C@@H](C(=O)N[C@H](C(=O)N[C@@H](Cc2ccccc2)C(=O)N[C@H](Cc2ccccn2)C(N)=O)[C@@H](C)O)NC(=O)[C@H](Cc2c[nH]c3ccccc23)NC(=O)[C@H](C(C)C)NC(=O)[C@H](CC(C)C)NC(=O)[C@H](CCC(=O)O)NC(=O)CNC(=O)[C@H](CC(C)C)NC(=O)[C@H](Cc2cnc[nH]2)NC(=O)[C@H](Cc2ccc(O)cc2)NC(=O)[C@H](C)NC1=O`, the Kd in experiment [1] is 23 nM. Moreover, in experiment [2], the Ka is 1.32e+06 M⁻¹ s⁻¹. The Kdiss in experiment [3] came out at 0.0304 s⁻¹.
For `CC(=O)N[C@@H](CC(=O)O)C(=O)N[C@H]1CSSC[C@@H](C(=O)N[C@H](C(=O)N[C@@H](Cc2ccccc2)C(=O)NC(CC2CCCCC2)C(N)=O)[C@@H](C)O)NC(=O)[C@H](Cc2c[nH]c3ccccc23)NC(=O)[C@H](C(C)C)NC(=O)[C@H](CC(C)C)NC(=O)[C@H](CCC(=O)O)NC(=O)CNC(=O)[C@H](CCCCN)NC(=O)[C@H](Cc2cnc[nH]2)NC(=O)[C@H](Cc2ccc(O)cc2)NC(=O)[C@H](C)NC1=O` (some centres not stated) (Ac-DCAYHKGELVWCTF[ξCha]-NH2; disulfide 2-12) the same measures were 165 nM, 776000 M⁻¹ s⁻¹ and 0.128 s⁻¹.
For `CC(=O)N[C@@H](CC(=O)O)C(=O)N[C@H]1CSSC[C@@H](C(=O)N[C@H](C(=O)N[C@@H](Cc2ccccc2)C(=O)NC(Cc2ccccn2)C(N)=O)[C@@H](C)O)NC(=O)[C@H](Cc2c[nH]c3ccccc23)NC(=O)[C@H](C(C)C)NC(=O)[C@H](CC(C)C)NC(=O)[C@H](CCC(=O)O)NC(=O)CNC(=O)[C@H](CC(C)C)NC(=O)[C@H](Cc2cnc[nH]2)NC(=O)[C@H](Cc2ccc(O)cc2)NC(=O)[C@H](C)NC1=O` (mixture of isomers) the same measures were 2.19 nM, 1.49e+06 M⁻¹ s⁻¹ and 0.00326 s⁻¹.
For `CC(=O)N[C@@H](CC(=O)O)C(=O)N[C@H]1CSSC[C@@H](C(=O)N[C@H](C(=O)N[C@@H](Cc2ccccc2)C(=O)NC(CCN)C(N)=O)[C@@H](C)O)NC(=O)[C@H](Cc2c[nH]c3ccccc23)NC(=O)[C@H](C(C)C)NC(=O)[C@H](CC(C)C)NC(=O)[C@H](CCC(=O)O)NC(=O)CNC(=O)[C@H](CCCCN)NC(=O)[C@H](Cc2cnc[nH]2)NC(=O)[C@H](Cc2ccc(O)cc2)NC(=O)[C@H](C)NC1=O` (some centres not stated) (Ac-DCAYHKGELVWCTF[ξDab]-NH2; disulfide 2-12) the same measures were 1020 nM, 731000 M⁻¹ s⁻¹ and 0.749 s⁻¹.
`CC(=O)N[C@@H](CC(=O)O)C(=O)N[C@H]1CSSC[C@@H](C(=O)N[C@H](C(=O)N[C@@H](Cc2ccccc2)C(=O)N[C@@H](C)C(N)=O)[C@@H](C)O)NC(=O)[C@H](Cc2c[nH]c3ccccc23)NC(=O)[C@H](C(C)C)NC(=O)[C@H](CC(C)C)NC(=O)[C@H](CCC(=O)O)NC(=O)CNC(=O)[C@H](CCCCN)NC(=O)[C@H](Cc2cnc[nH]2)NC(=O)[C@H](Cc2ccc(O)cc2)NC(=O)[C@H](C)NC1=O` (Ac-DCAYHKGELVWCTFA-NH2; disulfide 2-12): the Kd in experiment [1] worked out at 841 nM. Further, the Ka in experiment [2] came out at 567000 M⁻¹ s⁻¹. In addition, the Kdiss in experiment [3] worked out at 0.477 s⁻¹.
Take `CC(=O)N[C@@H](CC(=O)O)C(=O)N[C@H]1CSSC[C@@H](C(=O)N[C@H](C(=O)N[C@@H](Cc2ccccc2)C(=O)N[C@@H](Cc2c[nH]c3ccccc23)C(N)=O)[C@@H](C)O)NC(=O)[C@H](Cc2c[nH]c3ccccc23)NC(=O)[C@H](C(C)C)NC(=O)[C@H](CC(C)C)NC(=O)[C@H](CCC(=O)O)NC(=O)CNC(=O)[C@H](CCCCN)NC(=O)[C@H](Cc2cnc[nH]2)NC(=O)[C@H](Cc2ccc(O)cc2)NC(=O)[C@H](C)NC1=O` (Ac-DCAYHKGELVWCTFW-NH2; disulfide 2-12): the Kd in experiment [1] is 1220 nM.
As to `CC(=O)N[C@@H](CC(=O)O)C(=O)N[C@H]1CSSC[C@@H](C(=O)N[C@H](C(=O)N[C@@H](Cc2ccccc2)C(=O)N[C@@H](Cc2ccccc2)C(N)=O)[C@@H](C)O)NC(=O)[C@H](Cc2c[nH]c3ccccc23)NC(=O)[C@H](C(C)C)NC(=O)[C@H](CC(C)C)NC(=O)[C@H](CCC(=O)O)NC(=O)CNC(=O)[C@H](CCCCN)NC(=O)[C@H](Cc2cnc[nH]2)NC(=O)[C@H](Cc2ccc(O)cc2)NC(=O)[C@H](C)NC1=O` (Ac-DCAYHKGELVWCTFF-NH2; disulfide 2-12), in experiment [1], the Kd is 506 nM. Moreover, in experiment [2], the Ka came out at 713000 M⁻¹ s⁻¹. Besides, the Kdiss in experiment [3] was 0.361 s⁻¹.
As to `CC(=O)N[C@@H](CC(=O)O)C(=O)N[C@H]1CSSC[C@@H](C(=O)N[C@H](C(=O)N[C@@H](Cc2ccccc2)C(=O)NC(Cc2ccccn2)C(N)=O)[C@@H](C)O)NC(=O)[C@H](Cc2c[nH]c3ccccc23)NC(=O)[C@H](C(C)C)NC(=O)[C@H](CC(C)C)NC(=O)[C@H](CCC(=O)O)NC(=O)CNC(=O)[C@H](CCCCN)NC(=O)[C@H](Cc2cnc[nH]2)NC(=O)[C@H](Cc2ccc(O)cc2)NC(=O)[C@H](C)NC1=O` (mixture of isomers), the Kd in experiment [1] worked out at 75.7 nM. Further, the Ka in experiment [2] was 764000 M⁻¹ s⁻¹. Moreover, in experiment [3], the Kdiss amounted to 0.0579 s⁻¹.
For the compound `CC(=O)N[C@@H](CC(=O)O)C(=O)N[C@H]1CSSC[C@@H](C(=O)N[C@H](C(=O)N[C@@H](Cc2ccccc2)C(=O)NC(Cc2ccccn2)C(=O)O)[C@@H](C)O)NC(=O)[C@H](Cc2c[nH]c3ccccc23)NC(=O)[C@H](C(C)C)NC(=O)[C@H](CC(C)C)NC(=O)[C@H](CCC(=O)O)NC(=O)CNC(=O)[C@H](CC(C)C)NC(=O)[C@H](Cc2cnc[nH]2)NC(=O)[C@H](Cc2ccc(O)cc2)NC(=O)[C@H](C)NC1=O` (some centres not stated) (Ac-DCAYHLGELVWCTF[ξ2Pal]-OH; disulfide 2-12), the Kd in experiment [1] amounted to 2.48 nM. The Ka in experiment [2] is 1.35e+06 M⁻¹ s⁻¹. In experiment [3], the Kdiss was found to be 0.0033 s⁻¹.
Consider `CC(=O)N[C@@H](CC(=O)O)C(=O)N[C@H]1CSSC[C@@H](C(=O)N[C@H](C(=O)N[C@@H](Cc2ccccc2)C(=O)NC(CCCN)C(N)=O)[C@@H](C)O)NC(=O)[C@H](Cc2c[nH]c3ccccc23)NC(=O)[C@H](C(C)C)NC(=O)[C@H](CC(C)C)NC(=O)[C@H](CCC(=O)O)NC(=O)CNC(=O)[C@H](CCCCN)NC(=O)[C@H](Cc2cnc[nH]2)NC(=O)[C@H](Cc2ccc(O)cc2)NC(=O)[C@H](C)NC1=O` (some centres not stated) (Ac-DCAYHKGELVWCTF[ξOrn]-NH2; disulfide 2-12), for which the Kd in experiment [1] was 710 nM.
